From ChEMBL document CHEMBL3991601, “The target landscape of clinical kinase drugs” (Science, 2017)
Activity calls are given as the source filed them.

Key:
[1] = target: T1, Long-chain-fatty-acid--CoA ligase 5 (Homo sapiens, UniProt Q9ULC5)
T1 sequence (Q9ULC5 whole entry): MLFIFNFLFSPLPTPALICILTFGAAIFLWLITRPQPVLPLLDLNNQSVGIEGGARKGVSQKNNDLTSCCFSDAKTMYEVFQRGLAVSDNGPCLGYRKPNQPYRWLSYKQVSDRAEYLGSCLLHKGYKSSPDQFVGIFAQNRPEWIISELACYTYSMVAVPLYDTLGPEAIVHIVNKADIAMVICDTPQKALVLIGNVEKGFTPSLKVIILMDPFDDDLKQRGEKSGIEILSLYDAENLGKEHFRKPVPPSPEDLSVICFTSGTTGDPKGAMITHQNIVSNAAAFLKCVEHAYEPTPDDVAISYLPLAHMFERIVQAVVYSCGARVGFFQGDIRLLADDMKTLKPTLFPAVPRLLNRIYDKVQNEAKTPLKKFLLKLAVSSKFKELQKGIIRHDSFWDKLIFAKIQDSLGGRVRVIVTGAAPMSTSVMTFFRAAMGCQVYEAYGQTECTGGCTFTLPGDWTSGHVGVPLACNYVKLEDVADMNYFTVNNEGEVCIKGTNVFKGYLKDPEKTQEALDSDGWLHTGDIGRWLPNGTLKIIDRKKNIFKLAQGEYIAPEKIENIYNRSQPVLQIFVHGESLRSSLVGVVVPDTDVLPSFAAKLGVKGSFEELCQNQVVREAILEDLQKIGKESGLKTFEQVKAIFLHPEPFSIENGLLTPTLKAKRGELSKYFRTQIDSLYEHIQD

[2] = target: T2, Activin receptor type-1B (Homo sapiens, UniProt P36896)
T2 sequence (P36896 whole entry): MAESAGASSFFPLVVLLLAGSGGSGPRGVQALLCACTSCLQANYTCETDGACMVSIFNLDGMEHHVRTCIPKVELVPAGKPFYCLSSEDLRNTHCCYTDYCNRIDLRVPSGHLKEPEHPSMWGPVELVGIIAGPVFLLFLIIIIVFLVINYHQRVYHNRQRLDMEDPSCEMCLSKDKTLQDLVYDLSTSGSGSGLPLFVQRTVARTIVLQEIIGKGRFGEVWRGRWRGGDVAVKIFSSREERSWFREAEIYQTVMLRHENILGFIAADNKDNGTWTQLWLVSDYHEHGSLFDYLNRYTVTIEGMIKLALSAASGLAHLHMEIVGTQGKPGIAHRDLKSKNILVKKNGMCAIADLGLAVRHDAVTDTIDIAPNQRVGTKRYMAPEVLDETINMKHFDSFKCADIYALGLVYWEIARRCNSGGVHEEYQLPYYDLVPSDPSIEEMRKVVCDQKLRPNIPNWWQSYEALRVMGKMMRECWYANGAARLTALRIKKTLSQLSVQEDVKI

[3] = target: Aurora kinase B (Homo sapiens, UniProt Q96GD4)
[4] = target: T3, Isoleucine--tRNA ligase, mitochondrial (Homo sapiens, UniProt Q9NSE4)
T3 sequence (Q9NSE4 whole entry): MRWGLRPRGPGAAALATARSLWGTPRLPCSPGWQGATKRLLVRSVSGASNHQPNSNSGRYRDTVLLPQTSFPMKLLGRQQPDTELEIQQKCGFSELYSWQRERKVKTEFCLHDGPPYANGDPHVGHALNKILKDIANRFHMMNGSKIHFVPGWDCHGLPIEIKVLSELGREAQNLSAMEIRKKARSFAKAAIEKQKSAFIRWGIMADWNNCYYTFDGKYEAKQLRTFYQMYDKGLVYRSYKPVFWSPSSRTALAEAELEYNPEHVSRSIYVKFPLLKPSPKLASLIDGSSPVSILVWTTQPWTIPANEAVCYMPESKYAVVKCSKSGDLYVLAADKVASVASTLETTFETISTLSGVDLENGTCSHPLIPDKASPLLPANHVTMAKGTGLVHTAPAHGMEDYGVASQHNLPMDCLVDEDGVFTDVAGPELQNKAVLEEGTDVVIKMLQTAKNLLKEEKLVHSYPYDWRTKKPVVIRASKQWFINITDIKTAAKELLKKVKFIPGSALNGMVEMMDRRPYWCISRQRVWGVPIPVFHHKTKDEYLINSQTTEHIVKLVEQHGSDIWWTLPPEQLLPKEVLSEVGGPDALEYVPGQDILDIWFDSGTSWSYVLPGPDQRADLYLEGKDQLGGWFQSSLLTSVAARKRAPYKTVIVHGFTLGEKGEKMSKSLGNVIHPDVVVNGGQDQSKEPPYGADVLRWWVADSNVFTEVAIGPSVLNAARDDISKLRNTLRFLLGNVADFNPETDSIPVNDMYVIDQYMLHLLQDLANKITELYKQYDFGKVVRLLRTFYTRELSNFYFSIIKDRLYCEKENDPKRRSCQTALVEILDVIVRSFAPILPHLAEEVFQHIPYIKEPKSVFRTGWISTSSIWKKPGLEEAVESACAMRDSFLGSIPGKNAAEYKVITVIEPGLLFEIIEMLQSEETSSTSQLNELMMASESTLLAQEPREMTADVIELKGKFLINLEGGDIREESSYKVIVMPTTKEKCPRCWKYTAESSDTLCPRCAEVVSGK

[5] = target: Misshapen-like kinase 1 (Homo sapiens, UniProt Q8N4C8)
[6] = target: Serine/threonine-protein kinase Nek7 (Homo sapiens, UniProt Q8TDX7)
[7] = target: Protein kinase C beta type (Homo sapiens, UniProt P05771)
[8] = target: Proto-oncogene tyrosine-protein kinase receptor Ret (Homo sapiens, UniProt P07949)
[9] = target: Serine/threonine-protein kinase 38-like (Homo sapiens, UniProt Q9Y2H1)
[10] = target: Dual specificity testis-specific protein kinase 2 (Homo sapiens, UniProt Q96S53)
[11] = target: Mitogen-activated protein kinase 14 (Homo sapiens, UniProt Q16539)
Note: in the data inactive means no Kd found up to 30 µM.

Chain of Misshapen-like kinase 1 (Q8N4C8 whole entry): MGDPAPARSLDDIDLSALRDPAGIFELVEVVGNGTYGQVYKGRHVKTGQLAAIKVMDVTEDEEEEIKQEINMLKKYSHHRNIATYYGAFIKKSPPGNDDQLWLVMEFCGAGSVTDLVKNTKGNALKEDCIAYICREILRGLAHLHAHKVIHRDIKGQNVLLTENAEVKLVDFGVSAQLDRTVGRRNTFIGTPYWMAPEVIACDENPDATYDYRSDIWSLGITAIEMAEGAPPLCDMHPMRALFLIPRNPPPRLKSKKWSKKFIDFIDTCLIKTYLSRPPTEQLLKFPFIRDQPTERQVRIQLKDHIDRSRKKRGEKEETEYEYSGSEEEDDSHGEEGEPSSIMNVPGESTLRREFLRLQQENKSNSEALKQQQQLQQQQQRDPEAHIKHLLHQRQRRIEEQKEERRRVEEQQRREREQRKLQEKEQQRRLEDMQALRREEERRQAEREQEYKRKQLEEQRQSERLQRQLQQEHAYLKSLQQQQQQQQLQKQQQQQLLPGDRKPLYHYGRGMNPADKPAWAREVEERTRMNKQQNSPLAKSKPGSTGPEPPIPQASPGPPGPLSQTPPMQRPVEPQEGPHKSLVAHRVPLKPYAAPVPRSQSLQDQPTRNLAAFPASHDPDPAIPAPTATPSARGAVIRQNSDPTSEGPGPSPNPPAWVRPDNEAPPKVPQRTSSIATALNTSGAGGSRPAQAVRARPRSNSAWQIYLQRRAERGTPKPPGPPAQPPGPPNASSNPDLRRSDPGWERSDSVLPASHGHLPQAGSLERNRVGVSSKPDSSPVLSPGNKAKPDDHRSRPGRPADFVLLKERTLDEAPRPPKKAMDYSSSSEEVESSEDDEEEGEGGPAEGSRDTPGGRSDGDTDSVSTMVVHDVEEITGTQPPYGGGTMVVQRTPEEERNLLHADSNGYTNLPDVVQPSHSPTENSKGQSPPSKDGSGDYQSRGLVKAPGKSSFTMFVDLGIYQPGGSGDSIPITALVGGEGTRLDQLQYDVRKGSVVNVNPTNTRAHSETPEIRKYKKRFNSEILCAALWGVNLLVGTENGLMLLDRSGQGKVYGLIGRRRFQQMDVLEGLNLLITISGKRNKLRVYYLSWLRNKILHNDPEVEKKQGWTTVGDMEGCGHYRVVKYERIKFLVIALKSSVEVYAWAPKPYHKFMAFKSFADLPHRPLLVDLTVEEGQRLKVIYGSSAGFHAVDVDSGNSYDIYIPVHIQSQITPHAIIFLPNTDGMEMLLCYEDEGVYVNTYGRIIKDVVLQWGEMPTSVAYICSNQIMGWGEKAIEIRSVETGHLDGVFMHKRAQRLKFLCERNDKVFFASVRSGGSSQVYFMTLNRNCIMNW
Chain of Serine/threonine-protein kinase 38-like (Q9Y2H1 whole entry): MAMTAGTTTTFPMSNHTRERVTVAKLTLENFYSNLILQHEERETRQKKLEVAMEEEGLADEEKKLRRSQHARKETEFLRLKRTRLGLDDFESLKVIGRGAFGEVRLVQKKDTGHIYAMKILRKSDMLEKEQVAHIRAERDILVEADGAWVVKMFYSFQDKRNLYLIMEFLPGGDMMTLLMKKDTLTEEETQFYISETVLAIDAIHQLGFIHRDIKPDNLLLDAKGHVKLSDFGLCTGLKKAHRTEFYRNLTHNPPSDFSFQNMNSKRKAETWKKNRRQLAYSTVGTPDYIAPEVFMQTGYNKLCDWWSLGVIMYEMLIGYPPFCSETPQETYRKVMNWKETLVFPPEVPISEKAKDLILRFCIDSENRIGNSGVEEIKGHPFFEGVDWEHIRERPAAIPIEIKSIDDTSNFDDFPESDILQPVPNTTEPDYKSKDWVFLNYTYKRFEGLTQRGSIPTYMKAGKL
Chain of Serine/threonine-protein kinase Nek7 (Q8TDX7 whole entry): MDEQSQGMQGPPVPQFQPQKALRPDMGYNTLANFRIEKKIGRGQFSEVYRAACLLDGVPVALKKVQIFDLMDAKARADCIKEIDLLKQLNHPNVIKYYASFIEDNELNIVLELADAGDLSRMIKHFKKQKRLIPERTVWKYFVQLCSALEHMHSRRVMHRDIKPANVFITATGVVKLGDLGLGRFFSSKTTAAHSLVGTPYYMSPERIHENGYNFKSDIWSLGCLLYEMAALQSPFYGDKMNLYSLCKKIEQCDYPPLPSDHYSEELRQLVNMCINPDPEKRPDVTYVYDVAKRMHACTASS
Chain of Protein kinase C beta type (P05771 whole entry): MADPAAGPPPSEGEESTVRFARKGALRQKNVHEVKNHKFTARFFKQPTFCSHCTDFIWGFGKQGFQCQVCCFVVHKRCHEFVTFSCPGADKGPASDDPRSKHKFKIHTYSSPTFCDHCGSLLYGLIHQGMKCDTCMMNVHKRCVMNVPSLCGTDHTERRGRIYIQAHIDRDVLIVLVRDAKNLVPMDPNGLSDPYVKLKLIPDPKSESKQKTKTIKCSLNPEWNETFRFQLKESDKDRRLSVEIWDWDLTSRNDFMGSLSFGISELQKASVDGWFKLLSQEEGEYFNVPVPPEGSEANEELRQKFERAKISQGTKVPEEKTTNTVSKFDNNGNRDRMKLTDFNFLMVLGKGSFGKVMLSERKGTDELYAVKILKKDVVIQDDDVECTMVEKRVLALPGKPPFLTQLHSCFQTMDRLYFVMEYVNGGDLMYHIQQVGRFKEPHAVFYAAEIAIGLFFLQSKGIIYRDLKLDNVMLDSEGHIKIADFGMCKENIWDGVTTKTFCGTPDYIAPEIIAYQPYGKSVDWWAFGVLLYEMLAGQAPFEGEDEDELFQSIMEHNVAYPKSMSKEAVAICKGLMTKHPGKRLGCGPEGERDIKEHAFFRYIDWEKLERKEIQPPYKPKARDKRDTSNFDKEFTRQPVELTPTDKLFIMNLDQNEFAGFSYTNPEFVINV
Chain of Dual specificity testis-specific protein kinase 2 (Q96S53 whole entry): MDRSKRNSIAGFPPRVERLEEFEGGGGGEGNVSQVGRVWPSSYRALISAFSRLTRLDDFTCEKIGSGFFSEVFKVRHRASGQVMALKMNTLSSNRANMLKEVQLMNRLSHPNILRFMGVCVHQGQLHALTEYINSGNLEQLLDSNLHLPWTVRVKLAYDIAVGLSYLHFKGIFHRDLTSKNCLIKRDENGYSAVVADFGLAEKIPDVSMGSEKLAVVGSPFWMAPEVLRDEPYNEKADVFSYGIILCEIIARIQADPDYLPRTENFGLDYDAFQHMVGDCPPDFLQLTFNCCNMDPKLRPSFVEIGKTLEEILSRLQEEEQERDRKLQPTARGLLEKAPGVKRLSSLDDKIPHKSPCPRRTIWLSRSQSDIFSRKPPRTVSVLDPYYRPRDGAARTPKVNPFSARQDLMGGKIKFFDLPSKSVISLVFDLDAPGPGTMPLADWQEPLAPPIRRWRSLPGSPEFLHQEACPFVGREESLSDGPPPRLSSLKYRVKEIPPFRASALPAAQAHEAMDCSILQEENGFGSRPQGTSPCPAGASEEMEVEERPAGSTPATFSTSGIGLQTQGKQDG
Chain of Proto-oncogene tyrosine-protein kinase receptor Ret (P07949 whole entry): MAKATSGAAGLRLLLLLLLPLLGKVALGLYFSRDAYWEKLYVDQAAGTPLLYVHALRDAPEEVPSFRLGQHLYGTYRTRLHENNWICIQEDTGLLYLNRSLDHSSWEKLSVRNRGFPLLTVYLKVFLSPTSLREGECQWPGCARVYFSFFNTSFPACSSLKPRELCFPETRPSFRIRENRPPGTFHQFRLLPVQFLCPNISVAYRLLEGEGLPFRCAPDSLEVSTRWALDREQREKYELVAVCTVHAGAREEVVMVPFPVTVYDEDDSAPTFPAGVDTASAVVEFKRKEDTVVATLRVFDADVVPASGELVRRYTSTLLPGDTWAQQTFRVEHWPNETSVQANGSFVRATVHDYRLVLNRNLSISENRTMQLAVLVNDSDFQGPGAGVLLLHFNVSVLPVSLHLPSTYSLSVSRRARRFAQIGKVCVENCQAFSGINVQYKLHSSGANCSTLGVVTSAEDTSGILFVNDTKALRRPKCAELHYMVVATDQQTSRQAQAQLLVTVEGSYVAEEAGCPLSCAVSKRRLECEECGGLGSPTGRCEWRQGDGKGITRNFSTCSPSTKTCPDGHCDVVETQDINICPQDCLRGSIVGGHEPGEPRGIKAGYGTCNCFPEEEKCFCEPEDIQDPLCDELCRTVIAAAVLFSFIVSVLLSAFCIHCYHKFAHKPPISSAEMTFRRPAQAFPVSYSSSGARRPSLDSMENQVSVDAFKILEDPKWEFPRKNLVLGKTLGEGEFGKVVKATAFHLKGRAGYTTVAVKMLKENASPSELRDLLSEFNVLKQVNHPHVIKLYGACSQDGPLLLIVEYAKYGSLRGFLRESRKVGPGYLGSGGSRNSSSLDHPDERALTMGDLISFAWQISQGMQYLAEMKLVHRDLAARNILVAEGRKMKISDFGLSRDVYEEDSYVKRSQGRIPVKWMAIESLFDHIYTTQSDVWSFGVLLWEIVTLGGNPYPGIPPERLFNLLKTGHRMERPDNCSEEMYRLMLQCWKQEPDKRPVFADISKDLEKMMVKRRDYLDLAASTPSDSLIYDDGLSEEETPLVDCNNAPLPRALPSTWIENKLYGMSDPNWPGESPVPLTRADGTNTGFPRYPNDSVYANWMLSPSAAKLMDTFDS
Chain of Aurora kinase B (Q96GD4 whole entry): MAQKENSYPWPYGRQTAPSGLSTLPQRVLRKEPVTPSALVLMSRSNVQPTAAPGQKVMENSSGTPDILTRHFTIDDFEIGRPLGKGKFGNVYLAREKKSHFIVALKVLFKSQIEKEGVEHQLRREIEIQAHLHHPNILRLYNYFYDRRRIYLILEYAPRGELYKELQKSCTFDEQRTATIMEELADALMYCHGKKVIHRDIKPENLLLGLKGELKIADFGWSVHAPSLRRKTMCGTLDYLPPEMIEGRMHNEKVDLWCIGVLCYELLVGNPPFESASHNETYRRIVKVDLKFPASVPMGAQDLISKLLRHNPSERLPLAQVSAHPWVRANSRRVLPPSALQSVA

Kd [1]	Kd [2]	Kd [4]	Kd [5]	Kd [6]	Kd [7]	Kd [9]	Kd [10]	Kd [11]	SMILES	Kd [3]	Kd [8]
> 30 µM (inactive)	> 30 µM (inactive)	> 30 µM (inactive)	> 30 µM (inactive)	> 30 µM (inactive)	> 30 µM (inactive)	> 30 µM (inactive)	> 30 µM (inactive)	> 30 µM (inactive)	COc1cc2nccc(Oc3ccc(NC(=O)Nc4cc(C)on4)c(Cl)c3)c2cc1OC [TIVOZANIB]		
> 30 µM (inactive)	> 30 µM (inactive)	> 30 µM (inactive)	> 30 µM (inactive)	> 30 µM (inactive)	> 30 µM (inactive)	> 30 µM (inactive)	> 30 µM (inactive)	> 30 µM (inactive)	CC[C@@H]1C(=O)N(C)c2cnc(Nc3ccc(C(=O)N[C@H]4CC[C@H](N5CCN(CC6CC6)CC5)CC4)cc3OC)nc2N1C(C)C [VOLASERTIB]	> 30 µM (inactive)	> 30 µM (inactive)

SMILES	Kd [1]	Kd [2]	Kd [4]	Kd [5]	Kd [6]	Kd [7]	Kd [9]	Kd [10]	Kd [11]	Kd [3]	Kd [8]
CN1CCC(COc2cnc(-c3cccc(Cn4nc(-c5cccc(C#N)c5)ccc4=O)c3)nc2)CC1 [TEPOTINIB]	> 30 µM (inactive)	> 30 µM (inactive)	> 30 µM (inactive)	> 30 µM (inactive)	> 30 µM (inactive)	> 30 µM (inactive)	> 30 µM (inactive)	> 30 µM (inactive)		> 30 µM (inactive)	> 30 µM (inactive)
